Data taken from patent US20250327028A1, “ENGINEERED PLATELETS AS TARGETED PROTEIN DEGRADERS” (Wisconsin Alumni Research Foundation, priority 2024, published 2025).

What was measured:
[1] = system: 4T1 cells; test: In-gel fluorescence detection of NA-647 internalization in 4T1 cells cotreated with HAC-B; assay type: cell-based, murine; settings: 4T1 cells cotreated with HAC-B (all concentrations) and NA-647, 2 h
Description: In-gel fluorescence detection: In-gel fluorescence was mainly used to investigate the internalization of NeutrAvidin™_647 in HAC-B-treated cancer cells.
Sample preparation: 4T1 or WT MDA-MB-231 cells were seeded in 6-well culture plates with a density of 5×10^4 cells in each well and cultured for 24 h. If HAI pretreatment was performed, the cells were incubated in the HAI-containing blank medium at different concentrations for 2 h and washed with PBS twice before the following treatments. Then, the cells were treated with free HAC-B or the combinations of various ligands at the indicated concentrations for the predetermined time points. Next, the drug-containing medium was removed, and PBS was used to wash the cells twice, followed by incubating the cells in the blank medium containing NeutrAvidin™ DyLight™ 650 (NA-647, Invitrogen/84607) at 0.5 μM for 1 h. […]
In-gel fluorescence imaging: After 30-min lysis, the lysates were centrifuged at 10,000 g for 10 minutes at 4° C., and the corresponding supernatants were collected, followed by quantification of the total proteins in the supernatant through the BCA assay. […] After the proteins were separated, the gels were subjected to fluorescence imaging with the ChemiDoc™ MP imaging system (Bio-Rad).

[2] = system: WT MDA-MB-231 cells; test: Colocalization between internalized NeutrAvidin and lysosome marker LAMP1; assay type: cell-based, human; settings: HAC-B 5 μM, NA-647 0.5 μM 1 h
Description: Colocalization between internalized NeutrAvidin™ and lysosome maker: 5×10^4 WT MDA-MB-231 cells were seeded in a confocal dish and cultured for 24 h at 37° C. Then, the cells were treated with free HAC-B at 5 μM for 2 h. Next, the drug-containing medium was removed, and PBS was used to wash the cells twice, followed by incubating the cells in the blank medium containing NA-647 at 0.5 μM for 1 h. Subsequently, the cells were washed with PBS twice and fixed with 4% PFA at room temperature for 20 min. Subsequently, the cell sample was treated with the permeabilization solution (0.5% Triton™ X-100 in PBS) at room temperature for another 20 min, followed by incubation with the blocking buffer (1% BSA in PBS) at room temperature for 1 h. The cell sample was incubated with the rabbit anti-LAMP1 antibody (Cell Signaling Technology/9091T) overnight at 4° C., followed by the incubation with the Alexa Fluor®488-conjugated anti-rabbit IgG H & L secondary antibodies at room temperature for 2 h. After staining with Hoechst 33342, the cells were subjected to Leica SP8 Confocal WLL STED microscopy for observation.

[3] = target: T1, BRD4 (Mus musculus, UniProt Q9ESU6); test: Immunoblot analysis of BRD4 degradation in 4T1 cells after free HAC treatment; assay type: cell-based, murine
T1 construct: endogenous in cells; host or cells: 4T1
Source text: (§1) Immunoblot analysis: Immunoblot analysis was used to evaluate the expression of BRD4, HSP90, HSP90a, and PD-L1 in 4T1, WT MDA-MB-231, HSP90α-KO MDA-MB-231 or PEA-10 cells after various treatments and also served as the detection method for IP or co-IP experiments. The procedures for preparing IP or co-IP samples were indicated in the relevant experimental parts.
(§2) Sample preparation for various cancer cells after free HAC treatment: Various cells, including 4T1, WT MDA-MB-231, HSP90α-KO MDA-MB-231, or PEA-10 cells, were seeded in 6-well culture plates with a density of 5×10^4 cells in each well and cultured for 24 h. Then, if HAI pretreatment was performed, the cells were incubated in the HAI-containing blank medium at different concentrations for 2 h and washed with PBS twice before the following treatments. The medium in the corresponding wells was replaced with 1 mL of blank medium containing the DMSO vehicle, HACs, or the combinations of various free ligands at the predetermined concentrations. After incubation for the indicated time points, cells were washed with PBS and lysed on ice with the relevant lysis buffer containing PMSF (1 mM) and the phosphatase inhibitor cocktail for 30 min. As for the conditioned medium (CM), the culturing complete medium of the corresponding cancer cells in each well was collected after 24-h incubation and subjected to centrifugation at 2000 rpm for 5 min to obtain the supernatant. The filtrate of the supernatants was collected following filtration over a 0.45 μm filter, serving as the CM. Regarding the cell samples for BRD4 detection, the lysis buffer containing HEPES-KOH (pH=7.5, 10 mM), NaCl (500 mM), EDTA (5 mM), NP-40 (1%), and SDS (0.1%) was used with the indicated PMSF and phosphatase inhibitor cocktail. As for PD-L1 detection, RIPA buffer (Thermo Fisher Scientific/J63306.AP) was used with the indicated PMSF and phosphatase inhibitor cocktail.
General procedures for immunoblot analysis: After a 30-min lysis, the lysates were centrifuged at 10,000 g for 10 minutes at 4° C., and the corresponding supernatants were collected, followed by quantification of the total proteins in the supernatant through the BCA assay. Afterward, the proteins in the supernatant were mixed with the loading buffer and heated at 95° C. for 15 min. Equal amounts of proteins from different samples ([…]) were loaded into the Bis-Tris gel formulated with Bis-Tis buffer, 30% acrylamide/Bis, 10% ammonium persulfate (APS) solution, and TEMED. The separated proteins were transferred to polyvinylidene fluoride (PVDF) membranes before the membranes were blocked with 5% nonfat milk in PBS-T. Next, the PVDF membranes were incubated with primary antibodies overnight at 4° C., if necessary, followed by the incubation with the goat-anti-rabbit IgG H & L (HRP) secondary antibodies at room temperature for 2 h. Finally, the bands were treated with electrochemiluminescence (ECL) western blot substrate, detected by the iBright™ imaging system and quantified with ImageJ software. 8% Bis-Tris gels were used for BRD4 detection, and 10% gels were adopted to analyze PD-L1.

[4] = target: T2, BRD4 (Homo sapiens, UniProt O60885); test: Immunoblot analysis of BRD4 degradation in WT MDA-MB-231 cells after free HAC treatment; assay type: cell-based
T2 construct: endogenous in cells; host or cells: WT MDA-MB-231 (ATCC)
Source text: as §1
as §2, with “Regarding the cell samples for BRD4 detection, the lysis buffer containing HEPES-KOH (pH=7.5, 10 mM), NaCl (500 mM), EDTA (5 mM), NP-40 (1%), and SDS (0.1%) was used with the indicated PMSF and phosphatase inhibitor cocktail. As for PD-L1 detection, RIPA buffer (Thermo Fisher Scientific/J63306.AP) was used with the indicated PMSF and phosphatase inhibitor cocktail.” left out
General procedures for immunoblot analysis: After a 30-min lysis, the lysates were centrifuged at 10,000 g for 10 minutes at 4° C., and the corresponding supernatants were collected, followed by quantification of the total proteins in the supernatant through the BCA assay. […] Finally, the bands were treated with electrochemiluminescence (ECL) western blot substrate, detected by the iBright™ imaging system and quantified with ImageJ software. […]

higher effective concentration that efficiently reduces BRD4 expression ([3]; 4T1 cells, 24 h) [µM] | lower effective concentration that efficiently reduces BRD4 expression ([3]; 4T1 cells, 24 h) [µM] | time dependence of BRD4 downregulation ([3]; 4T1 cells, at the two effective concentrations) | shape of concentration response of BRD4 degradation ([3]; 4T1 cells, at relatively lower concentrations, reversed at 20 μM) | shape of concentration response of BRD4 degradation ([4]; at relatively lower concentrations, reversed at 20 μM) | time dependence of BRD4 downregulation ([4]; at the two effective concentrations) | SMILES | internalization of NA-647 on cotreatment [1] | distribution of internalized NA-647 relative to lysosome marker LAMP1 [2] | BRD4 degradation in presence of proteasome inhibitor epoxomicin (Epox) ([3]; 4T1 and WT MDA-MB-231 cells (FIGS. 2K, 2L), lower or higher effective concentrations)
 |  |  |  |  |  | N#CCN(C(=O)CCCC[C@@H]1SC[C@@H]2NC(=O)N[C@@H]21)S(=O)(=O)c1ccc(C(=O)NCCCn2c(Sc3cc4c(cc3I)OCO4)nc3c(N)ncnc32)cc1 [HAC-B, N-(3-(6-amino-8-((6-iodobenzo[d][1,3]dioxol-5-yl)thio)-9H-purin-9-yl)propyl)-4-(N-(cyanomethyl)-N-(5-((3aS,4S,6aR)-2-oxohexahydro-1H-thieno[3,4-d]imidazol-4-yl)pentanoyl)sulfamoyl)benzamide] | failed to internalize NA-647 in a large quantity within 2 h | mainly overlapped with the lysosome maker, LAMP1 | 
20 | 0.16 | in a time-dependent manner | hook effect | hook effect | in a time-dependent manner | Cc1sc2c(c1C)C(c1ccc(Cl)cc1)=N[C@@H](CC(=O)NCc1cn(CCCC(=O)N(CC#N)S(=O)(=O)c3ccc(C(=O)NCCCn4c(Sc5cc6c(cc5I)OCO6)nc5c(N)ncnc54)cc3)nn1)c1nnc(C)n1-2 [iHAC, (S)—N-(3-(6-amino-8-((6-iodobenzo[d][1,3]dioxol-5-yl)thio)-9H-purin-9-yl)propyl)-4-(N-(4-(4-((2-(4-(4-chlorophenyl)-2,3,9-trimethyl-6H-thieno[3,2-f][1,2,4]triazolo[4,3-a][1,4]diazepin-6-yl)acetamido)methyl)-1H-1,2,3-triazol-1-yl)butanoyl)-N-(cyanomethyl)sulfamoyl)benzamide] |  |  | rescue effect induced by proteasome inhibitor epoxomicin (Epox)
